Test [1] relates to PC-3. The experiment in a line: Antiproliferative activity against human PC-3 cells incubated for 24 hrs by MTT assay. The settings on record: PC-3, 24 h. It is filed as functional, cell-based. For orientation: Tetrazolium assays rely on reduction of a dye to a coloured formazan, in cell work by metabolically active cells.
In test [2] the test system is NCI-H2228. As to the kind of experiment: Antiproliferative activity against human NCI-H2228 cells incubated for 24 hrs by MTT assay. It is filed as functional, cell-based. Conditions: NCI-H2228, 24 h.
For test [3], the system named is Huh-7. As to the kind of experiment: Antiproliferative activity against human Huh-7 cells incubated for 24 hrs by MTT assay. The format is functional, cell-based. The settings on record: Huh-7, 24 h.
Test [4] deals with MCF7. The experiment in a line: cells. It is filed as functional, cell-based. Conditions: Homo sapiens, MCF7, 24 h.
Description: Antiproliferative activity against human MCF7 cells incubated for 24 hrs by MTT assay
For test [5], the system named is MDA-MB-231. As to the kind of experiment: cells. Conditions: Homo sapiens, MDA-MB-231, 24 h. It is filed as functional, cell-based.
Test [6] has as its system HCT-116. As to the kind of experiment: cells. The settings on record: Homo sapiens, HCT-116, 24 h. It is filed as functional, cell-based.
Description: Antiproliferative activity against human HCT-116 cells incubated for 24 hrs by MTT assay
A further test addresses Histone deacetylase 1 (Homo sapiens, UniProt Q13547). The experiment in a line: Inhibition of HDAC1 (unknown origin).
Test [7] has as its system MDA-MB-231. As to the kind of experiment: cells. The settings on record: Homo sapiens, MDA-MB-231, 24 h.
Description: Antiproliferative activity against human MDA-MB-231 cells incubated for 24 hrs in presence of SAHA by MTT assay
Test [8] concerns HCT-116. As to the kind of experiment: cells. Conditions: Homo sapiens, HCT-116, 24 h.
Description: Antiproliferative activity against human HCT-116 cells incubated for 24 hrs in presence of SAHA by MTT assay
The test system of test [9] is NCI-H2228. As to the kind of experiment: Antiproliferative activity against human NCI-H2228 cells incubated for 24 hrs in presence of SAHA by MTT assay. It is filed as functional, cell-based. The settings on record: NCI-H2228, 24 h.
For test [10], the system named is MCF7. The experiment in a line: cells. The settings on record: Homo sapiens, MCF7, 24 h.
Description: Antiproliferative activity against human MCF7 cells incubated for 24 hrs in presence of SAHA by MTT assay
For test [11], the system named is Huh-7. As to the kind of experiment: Antiproliferative activity against human Huh-7 cells incubated for 24 hrs in presence of SAHA by MTT assay. It is filed as functional, cell-based. Conditions: Huh-7, 24 h.
In test [12] the test system is PC-3. The experiment in a line: Antiproliferative activity against human PC-3 cells incubated for 24 hrs in presence of SAHA by MTT assay. It is filed as functional, cell-based. Conditions: PC-3, 24 h.

In ChEMBL document CHEMBL6096629, “Indolo[3,2-c]isoquinoline Hydroxamic Acid Derivatives as Novel Orally Topoisomerase-Histone Deacetylase Dual Inhibitors for NSCLC Therapy” (J Med Chem, 2025) one finds IC50 data, which are given here for 9 compounds.

Some results are limits rather than exact numbers.

Sequence of Histone deacetylase 1 (Q13547 whole entry): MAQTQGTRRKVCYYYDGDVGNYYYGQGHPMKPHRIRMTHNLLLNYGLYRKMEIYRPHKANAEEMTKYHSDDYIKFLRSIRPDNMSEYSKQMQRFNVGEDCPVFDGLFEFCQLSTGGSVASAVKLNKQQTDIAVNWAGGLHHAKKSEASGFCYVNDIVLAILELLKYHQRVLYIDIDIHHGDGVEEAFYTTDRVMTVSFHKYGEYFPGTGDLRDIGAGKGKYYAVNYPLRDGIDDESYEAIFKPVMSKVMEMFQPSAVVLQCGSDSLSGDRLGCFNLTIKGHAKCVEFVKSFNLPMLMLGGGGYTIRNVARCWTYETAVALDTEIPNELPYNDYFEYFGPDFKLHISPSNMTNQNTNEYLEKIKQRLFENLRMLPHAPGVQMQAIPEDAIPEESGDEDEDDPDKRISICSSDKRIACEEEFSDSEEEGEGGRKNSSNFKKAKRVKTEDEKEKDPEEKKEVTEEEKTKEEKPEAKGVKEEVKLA

As usually defined, the IC50 is the concentration at which inhibition is half-maximal. With `CCCNNC(=O)CCCCCCn1c2cc3c(cc2c2ncc4ccccc4c21)OCO3`, the IC50 with PC-3 [1], in the test on NCI-H2228 [2], with Huh-7 [3], in the test on MCF7 [4], in the test with MDA-MB-231 [5] and in the test with HCT-116 [6] was more than 8000 nM throughout. The same compound registered an IC50 against Histone deacetylase 1 of 130 nM.

With `CCNNC(=O)CCCCn1c2cc3c(cc2c2[nH]c(=O)c4ccccc4c21)OCO3`, the IC50 was 3560 nM with PC-3 [1]; 2390 nM in the test on NCI-H2228 [2]; 7410 nM with Huh-7 [3]; 4080 nM with MCF7 [4]; more than 8000 nM in the test on MDA-MB-231 [5]; 3190 nM with HCT-116 [6]. In addition, on Histone deacetylase 1, half-maximal inhibition (IC50) was put at 1650 nM.

Regarding `CCCNNC(=O)CCCCn1c2cc3c(cc2c2[nH]c(=O)c4ccccc4c21)OCO3`, the IC50 with PC-3 [1] amounted to 930 nM; in the test on NCI-H2228 [2] it was 1170 nM; in the test on Huh-7 [3] it was 2740 nM; in the test with MCF7 [4] it was 1270 nM; with MDA-MB-231 [5] it was 2620 nM; in the test on HCT-116 [6], 1310 nM. On Histone deacetylase 1, the IC50 was 640 nM.

Consider `CCCNNC(=O)CCCCCn1c2cc3c(cc2c2[nH]c(=O)c4ccccc4c21)OCO3`, for which the IC50 with PC-3 [1] is 4600 nM; in the test on NCI-H2228 [2] it was 2840 nM; with Huh-7 [3], more than 8000 nM; in the test with MCF7 [4], more than 8000 nM; in the test on MDA-MB-231 [5] it was 5910 nM; with HCT-116 [6] it was 2880 nM. Also, the IC50 on Histone deacetylase 1 was found to be 500 nM.

Turning to `CCCNNC(=O)c1ccc(Cn2c3cc4c(cc3c3[nH]c(=O)c5ccccc5c32)OCO4)cc1`, the IC50 in the test with PC-3 [1] amounted to 1530 nM; with NCI-H2228 [2] it was 2170 nM; with Huh-7 [3], 6280 nM; with MCF7 [4], 1970 nM; in the test on MDA-MB-231 [5] it was 4450 nM; in the test with HCT-116 [6], 1500 nM. This compound also had an IC50 against Histone deacetylase 1 of 1090 nM.

As to `CCCNNC(=O)CCCCCCCn1c2cc3c(cc2c2[nH]c(=O)c4ccccc4c21)OCO3`, the IC50 with PC-3 [1], in the test with NCI-H2228 [2], with Huh-7 [3], with MCF7 [4], in the test with MDA-MB-231 [5] and in the test on HCT-116 [6] was more than 8000 nM throughout. Besides, the midpoint of inhibition against Histone deacetylase 1, the IC50, lay at 1720 nM.

Consider `O=C(CCCCCCCn1c2cc3c(cc2c2ncc4ccccc4c21)OCO3)NO`, for which the IC50 with PC-3 [1] is 2500 nM; with NCI-H2228 [2] it was 4600 nM; with Huh-7 [3], 6590 nM; with MCF7 [4], more than 8000 nM; with MDA-MB-231 [5], 2220 nM; in the test on HCT-116 [6], 2680 nM. The IC50 against Histone deacetylase 1 is less than 2 nM.

With `CCCCNNC(=O)CCCCn1c2cc3c(cc2c2[nH]c(=O)c4ccccc4c21)OCO3`, the IC50 in the test with PC-3 [1] was determined as 3240 nM; with NCI-H2228 [2], 2170 nM; in the test on Huh-7 [3] it was 6490 nM; in the test on MCF7 [4] it was 4110 nM; in the test with MDA-MB-231 [5], 4330 nM; in the test with HCT-116 [6] it was 3520 nM. This compound displayed an IC50 against Histone deacetylase 1 of 3320 nM.

On to `COc1cc([C@@H]2c3cc4c(cc3[C@@H](O[C@@H]3O[C@@H]5CO[C@@H](C)O[C@H]5[C@H](O)[C@H]3O)[C@H]3COC(=O)[C@H]23)OCO4)cc(OC)c1O` [ETOPOSIDE], for which the IC50 turned out to be 1010 nM in the test on MDA-MB-231 [7]; 950 nM in the test with HCT-116 [8]; 840 nM in the test on NCI-H2228 [9]; 640 nM in the test with MCF7 [10]; 810 nM with Huh-7 [11]; 650 nM in the test on PC-3 [12]. This compound also came in with an IC50 in the test with MDA-MB-231 [5] of 2870 nM.
